# Results: ChEMBL document CHEMBL1147638, “(+/-)-cis-(6-Ethyl-tetrahydropyran-2-yl)-formic acid: a novel substance with antinociceptive properties” (2004)
# Assays:
# Mus musculus [1] = assay: Increase in antinociceptive activity in mouse after oral administration at the dose of 1 mg/kg in tail flick test; assay type: functional
# Mus musculus [2] = assay: Increase in analgesic activity of compound after oral administration in mouse when compared with morphine in tail flick test; assay type: functional
compound,measurement,setting,value
CC[C@@H]1CCC[C@H](C(=O)O)O1,Increase,Mus musculus [1],40%
same,Increase,Mus musculus [2],55%
